Experimental data: paper PMC6724035, “Evaluation of Tumor-Targeting Properties of an Antagonistic Bombesin Analogue RM26 Conjugated with a Non-Residualizing Radioiodine Label Comparison with a Radiometal-Labelled Counterpart” (Pharmaceutics, 2019)
Where a SMILES comes first, the peptide text is derived from it. [ ]: non-standard residue; d: D form. Tyr(3-I) = N[C@@H](Cc1ccc(O)c(I)c1)C(=O)O; Sta = CC(C)C[C@H](N)[C@@H](O)CC(=O)O; AEEA = NCCOCCOCC(=O)O

What was measured:
[1] = HPLC
Method: In vitro stability of [^125I]I-Tyr-PEG2-RM26 was evaluated in PBS and in presence of 100-fold molar excess of sodium iodide (1 mM). After purification, samples of freshly labelled conjugate (10 µL, 0.01 nmol) were mixed with 1 µL of NaI and incubated at room temperature for 1 h. Control samples were mixed with equal volume of PBS. The experiment was performed in duplicates. The stability of [^125I]I-Tyr-PEG2-RM26 was analyzed by HPLC.

DU-145 cells = test: In vitro binding specificity assay; type: cell-based, human; conditions: 1 nM, 1 h at 37 °C; 200-fold excess NOTA-PEG4-RM26 for blocking
Method: (§1) The in vitro binding specificity test of [^125I]I-Tyr-PEG2-RM26 was performed on PC-3 and DU-145 cell lines. […] The cells were incubated with 1 nM concentration of [^125I]I-Tyr-PEG2-RM26 solution for 1 h at 37 °C. To saturate GRPR, one set of dishes was treated with 200-fold molar excess of non-labelled peptide, NOTA-PEG4-RM26, 15 min before adding the radiolabelled compound. After washing with serum-free media, cells were detached by treatment with 1 mL trypsin-EDTA solution twice. Cell-associated radioactivity was measured in the gamma-counter and presented as percentage of cell-associated activity.

PC-3 cells = test: In vitro binding specificity assay; type: cell-based, human; conditions: 1 nM, 1 h at 37 °C; 200-fold excess NOTA-PEG4-RM26 for blocking
Method: as §1

CC(C)C[C@H](NC(=O)C[C@H](O)[C@H](CC(C)C)NC(=O)[C@H](Cc1c[nH]cn1)NC(=O)CNC(=O)[C@@H](NC(=O)[C@H](C)NC(=O)[C@H](Cc1c[nH]c2ccccc12)NC(=O)[C@H](CCC(N)=O)NC(=O)[C@@H](Cc1ccccc1)NC(=O)COCCOCCNC(=O)[C@@H](N)Cc1ccc(O)c(I)c1)C(C)C)C(N)=O [[^125I]I-Tyr-PEG2-RM26] (H-[Tyr(3-I)][AEEA][dF]QWAVGH[Sta]L-NH2)
In vitro stability in presence of excess 1 mM NaI ([1]; 100-fold molar excess NaI, 1 h at room temperature): 92 ± 3% | In vitro stability in PBS ([1]; 1 h incubation at room temperature): 95 ± 1% | Binding specificity to DU-145 cells (DU-145 cells): receptor mediated | Binding specificity to PC-3 cells (PC-3 cells): receptor mediated
